One assay concerns the target MIC2. The assay is described as follows: SPR binding of PROTACs to immobilized antibody MIC2. The settings on record: MIC2, 1:1 kinetic binding model. How it is done:
(§1) The binding affinities of hit antibodies MIC1 and MIC2 to a diverse set of VH032-based PROTACs (FIGS. 8A-8B) was determined by surface plasmon resonance (SPR) in a Biacore T200 instrument. The running buffer consist of PBS, 0.05% Tween-20, 2% DMSO and temperature and flow rate were set to 30° C. and 30 μL/min, respectively. The assay setup is depicted exemplarily in FIG. 7A. CM5 sensor chips were coated with antibody (=ligand; 2500 RU) using standard EDC/NHS chemistry. PROTACs (=analytes) were serially diluted (1 μM-1.9 nM) in running buffer, injected to the instrument in consecutive runs and were captured by the antibody resulting in an increase of the corresponding SPR response. After the association step (300 s), running buffer was injected for 600 s and the PROTAC dissociated from the antibody leading to signal decrease. After each run, residual bound PROTAC was removed from the immobilized antibody by injection of 10 mM glycine/HCl, pH 1.5 for 2×30 s regenerating the antibody for the next association and dissociation cycle. To compensate for matrix effects, the measured SPR response signal was subtracted by the analyte response to an inactivated (EDC/NHS, ethanol amine) reference surface omitting the ligand. Furthermore, a DMSO solvent correction was performed and analyte response was subtracted by the running buffer signal. The corrected response was fitted by a 1:1 kinetic binding model yielding the on- (kon) and off-rate (koff) of the PROTAC, as well as its dissociation constant (KD).
(In SPR one partner is held on a chip, and binding of the other changes the refractive index at the surface.)

The next assay deals with MIC1. The assay is described as follows: SPR binding of PROTACs to immobilized antibody MIC1. Particulars: binding of PROTACs to MIC1, steady-state model. How it is done:
as §1, with “The corrected response was fitted by a 1:1 kinetic binding model yielding the on- (kon) and off-rate (koff) of the PROTAC, as well as its dissociation constant (KD).” left out

The subject of the next assay is HEPG2 cells. Nature of the assay: CellTiter-Glo cell viability assay (VHH-based PAX). The settings on record: HEPG2, PROTAC alone. How it is done:
(§2) Several cell viability experiments were performed following the procedure described below: Cells were seeded in different media into white cell culture-treated flat and clear bottom multiwell plates followed by overnight incubation in a humid chamber at 37° C. and 5% CO2. Complexation was performed as described in chapter 7.4.
(§3) The solutions were added to the cells based on the antibody concentration using nanodrop dispension using a Tecan D300e Digital Dispenser and all wells were normalized to the same volume using 0.3% TW20 in PBS pH 7.4 and DMSO to a final solvent concentration of 0.05% DMSO and 0.003% TW20. Incubation was performed at 37° C. at 5% or 10% CO2 dependent on the medium. The assay was developed after 3 days if not otherwise stated using CellTiter-Glo Luminescent Cell Viability Assay as described in the manufacturer's protocol. In brief, the plates were equilibrated to room temperature for 30 minutes. 100 mL CellTiter-Glo Buffer were added to the CellTiter-Glo Substrate Flask and mixed well. 30 μL of the reagent was transferred to each well. After incubation for 3 minutes at room temperature while shaking at 550 rpm, the plate was incubated for another 10 minutes at room temperature. The luminescence was read on an Envision reader from Perkin Elmer. Solvent alone and Bortezomib (1.0E-05 M) served as high control (100% viability) and low control (0% viability), respectively. Raw data were converted into percent cell viability relative to the high and low control, which were set to 100% and 0%, respectively. […] The concentration corresponds to the concentration of PROTACs in the PAX.
For orientation: ATP-based viability assays read luminescence as a measure of living cells.

The test system of a further assay is HCC827. The assay is described as follows: CellTiter-Glo cell viability assay (VHH-based PAX). Particulars: HCC827, PROTAC alone. The protocol: as §2, §3
The test system of another assay is SKBR3. Nature of the assay: CellTiter-Glo cell viability assay (VHH-based PAX). Particulars: SKBR3, PROTAC alone. The protocol:
as §2, §3

The next assay has as its system NCIN87. The assay is described as follows: CellTiter-Glo cell viability assay (VHH-based PAX). Particulars: NCIN87, PROTAC alone. How it is done: as §2, §3
Another assay deals with A431. Nature of the assay: CellTiter-Glo cell viability assay (VHH-based PAX). The settings on record: A431, PROTAC alone. How it is done: as §2, §3
A further assay has as its system OVCAR3. The assay is described as follows: CellTiter-Glo cell viability assay (VHH-based PAX). The settings on record: OVCAR3, PROTAC alone. The protocol:
as §2, §3

The next assay deals with MDAMB468 cells. Nature of the assay: CellTiter-Glo cell viability assay (VHH-based PAX). The settings on record: MDAMB468, PROTAC alone. The protocol:
as §2, §3

For a further assay, the system named is MCF7. The assay is described as follows: CellTiter-Glo cell viability assay (VHH-based PAX). Particulars: MCF7, PROTAC alone. The protocol:
as §2, §3

A further assay has as its system A549. The assay is described as follows: CellTiter-Glo cell viability assay (VHH-based PAX). The settings on record: A549, PROTAC alone. The protocol: as §2, §3
The subject of a further assay is SKOV3. Nature of the assay: CellTiter-Glo cell viability assay (VHH-based PAX). The settings on record: SKOV3, PROTAC alone. The protocol: as §2, §3
In another assay the target is CLL1xMIC7. The assay is described as follows: SPR affinity of VHH clone (antibody fusion) to PROTACs. Particulars: CLL1xMIC7 immobilized, 25° C., read-out: KD [M] for antibody binding to PROTAC. How it is done: (§4) The kinetic and affinity parameters of protein-PROTAC interactions were evaluated by SPR. The anti-PROTAC VHH clones MIC5-MIC14 were immobilized as CD33 or CLL1 antibody fusion (the manufacturing of fusion proteins and the used linker is described in chapter 7.9) onto a CM5 (Series S) sensor chip via the standard amine coupling procedure, at 25° C. Prior to immobilization, the carboxymethylated surface of the chip was activated with 400 mM 1-ethyl-3-(3-dimethylaminopropyl)-carbodiimide and 100 mM N-hydroxysuccinimide for 7 min. Hit anti-PROTAC VHH as CD33 and CLL1 antibody fusions were diluted to 10 μg/ml in 10 mM Acetate at pH 4.5 and immobilized on the activated surface chip for 7 min, in order to reach 3,000 to 6,000 response units (RU). The remaining activated carboxymethylated groups were blocked with a 10 min injection of 1 M ethanolamine pH 8. HBS-N, which consists of 10 mM HEPES pH 7.4 and 150 mM NaCl, was used as the background buffer during immobilization. PROTACs were prediluted in DMSO, diluted 1:50 in running buffer (12 mM phosphate pH 7.4, 137 mM NaCl, 2.7 mM KCl, 0.05% Tween20, 2% DMSO) and injected at ten different concentrations using two-fold dilution series, from 1 μM to 0.002 μM. A DMSO solvent correction (1%-3%) was performed to account for variations in bulk signal and to achieve high-quality data. Interaction analysis cycles consisted of a 300 sec sample injection (30 μL/min; association phase) followed by 900 sec of buffer flow (dissociation phase).
(§5) All sensorgrams were processed by first subtracting the binding response recorded from the control surface (reference flow-channel), followed by subtracting of the buffer blank injection from the active flow-channel (target protein immobilized). All datasets were fit to a simple 1:1 Langmuir interaction model to determine the kinetic rate constants. Experiments were performed on a Biacore 8k+ (Cytiva, Uppsala, Sweden) at 25° C. and the interactions were evaluated using the provided Biacore Insight Evaluation software.

The next assay has as its target CD33xMIC7. The assay is described as above. Particulars: CD33xMIC7 immobilized, 25° C., read-out: KD [M] for antibody binding to PROTAC. How it is done: as §4, §5

As usually defined, the Kd is the concentration at which binding is half-saturated. One may read the IC50 as the concentration that gives 50% inhibition. Read a low IC50 as greater potency.

With `Cc1ncsc1-c1ccc(CNC(=O)[C@@H]2C[C@@H](O)CN2C(=O)[C@@H](NC(=O)COCCOCCOCCNC(=O)C[C@@H]2N=C(c3ccc(Cl)cc3)c3c(sc(C)c3C)-n3c(C)nnc32)C(C)(C)C)cc1` [MZ1], on MIC2, binding was characterised by a dissociation constant (Kd) of 0.12 nM, the koff result is recorded as “NM/1.30E−04 1/s” and the kon entry is recorded as “NM/1.10E+06 1/Ms”. This compound also returned a Kd at MIC1 of 4.9 nM.
Regarding `Cc1ncsc1-c1ccc(CNC(=O)[C@@H]2C[C@@H](O)CN2C(=O)[C@@H](NC(=O)COCC(C)(COCCOCCOCCNC(=O)C[C@@H]2N=C(c3ccc(Cl)cc3)c3c(sc(C)c3C)-n3c(C)nnc32)COCCOCCOCCNC(=O)C[C@@H]2N=C(c3ccc(Cl)cc3)c3c(sc(C)c3C)-n3c(C)nnc32)C(C)(C)C)cc1` [SIM1], the IC50 in the assay with HEPG2 cells was determined as 14 nM; with HCC827 it was 6.5 nM; in the assay on SKBR3 it was 3.6 nM; with NCIN87, 4 nM; in the assay with A431, 3 nM; with OVCAR3, 2.8 nM. Besides, the IC50 in the assay on MDAMB468 cells came to 7.1 nM; in the assay on MCF7, 1.5 nM; in the assay on A549, 17 nM; in the assay with SKOV3, 2.4 nM. Also, the Kd is under 1e-10 M at CLL1xMIC7 and 3.8e-09 M at CD33xMIC7.
